“Also recorded” adds a separate entry of the source. Where no end group is shown, it is not given here. [ ]: non-standard residue; d: D form. F+10 = not defined here; A+4 = not defined here; G+2 = not defined here; G+3 = not defined here
Legend:
[1] = test system: 15 proteases in the LUAD protease panel; assay: in vitro recombinant protease screen of FRET-paired substrates; type: biochemical; details: fluorescence fold change at 45 minutes; 1 μM substrate, 12.5 nM recombinant enzyme; MP metallo-, SP serine, AP aspartic protease
Excerpt: Hundreds of peptide sequences have been previously designed and validated as protease substrates, leveraging known catalytic specificities of different protease families, published datasets and substrate sequences in databases like cutDB and MEROPS (Igarashi et al., Nucleic Acids Res 35, D546-549, 2007; Rawlings et al., Nucleic Acids Res 46, D624-D632, 2018). Fourteen of these substrates were nominated in an effort to cover the specificity profiles of metallo-, serine and aspartic endoproteases, all of which were included in the LUAD protease panel, and the catalytic activity of each protease-substrate pair was characterized. Quenched probes that incorporated the 14 peptide substrates were synthesized such that they fluoresce upon proteolytic cleavage to enable real-time monitoring of protease activity in vitro (FIG. 3A and Table 2). Each probe was incubated with each protease in the panel and fluorescence was monitored over 45 minutes. Shown are sample kinetic plots monitoring dequenching of the 14 FRET-paired probes when incubated with (above) and without (below) recombinant matrix metalloproteinase 3 (MMP3) (FIG. 3B). […] See also FIG. 19.
Fluorogenic protease substrates were synthesized by CPC Scientific. Recombinant proteases were purchased from Enzo Life Sciences, R&D Systems and Haematologic Technologies. For recombinant protease assays, fluorogenic substrates PPQ1-14 (1 μM final concentration) were incubated in 30 μL final volume in appropriate enzyme buffer, according to manufacturer specifications, with 12.5 nM recombinant enzyme at 37° C. (FIG. 3). Proteolytic cleavage of substrates was quantified by increases in fluorescence over time by fluorimeter (Tecan Infinite M200 Pro). Enzyme cleavage rates were quantified as relative fluorescence increase over time normalized to fluorescence before addition of protease. Hierarchical clustering was performed in GENE-E, using fluorescence fold changes at 45 minutes.

[2] = test system: Kras and p53 mutant lung adenocarcinoma (KP mice); assay: urinary ABN readout and random forest classification in KP lung adenocarcinoma model; type: in vivo
Method: To characterize ABN performance in vivo, 14 protease-sensitive ABNs were administered to KP mice and healthy, age and sex-matched controls at 5, 7.5 and 10.5 weeks after tumor initiation. Mouse bladders were voided one hour after intrapulmonary delivery and all fresh urine produced during the subsequent hour (from 60-120 minutes after administration) was pooled and collected. LC-MS/MS was performed and peak area ratios (defined as peak area of urinary reporter divided by peak area of spiked-in internal standard) of protease-sensitive reporters were mean-normalized within each sample to reduce mouse-to-mouse variation.
A random forest classifier was then sought to be built to enable prospective diagnosis of lung cancer in KP mice. Random forest is a high-performance classifier, applicable to a wide variety of classification tasks, that generates a collection of decision trees (a “forest”) that are sampled to produce classification results (Breiman, Machine Learning 45, 5-32, 2001). A random forest classifier was trained using 50% of control mice at 5 weeks, 7.5 weeks and 10.5 weeks, as well as 50% of KP mice at 7.5 weeks (FIG. 6A). The classifier assigned a probability that each mouse belonged to either the KP cohort or the healthy control cohort (FIG. 6B, “Training” panel), achieving perfect separation of control and KP mice. The classifier was then sought to be tested on an independent validation cohort consisting of classifier-naive KP mice at 5 weeks, 7.5 weeks and 10.5 weeks post-induction, as well as the remaining control mice from each time point.
Male B6/SV129 Kras^LSL-G12D/+; Trp53^fl/fl (KP) mice between 18 and 30 weeks old were used for lung adenocarcinoma experiments. Tumors were initiated, as described previously (DuPage et al., Nat Protoc 4, 1064-1072 (2009)), by the intratracheal administration of 50 μL of adenovirus-SPC-Cre (2.5×10^8 PFU in Opti-MEM with 10 mM CaCl2)) under isoflurane anesthesia. […] Tumor growth was monitored by micro computed tomography (microCT) imaging (General Electric) and was scored by a blinded radiation oncologist using MicroView (Parallax Innovations) (Table 4). Tumor volumes were calculated by using the ROI sphere/elliptical tool.
ABN constructs (GluFib-Substrate-PEG-840 kDa) for urinary experiments were synthesized by CPC Scientific (Sunnyvale, CA). ABNs were dosed (50 μL total volume, 20 μM concentration per ABN) by intratracheal intubation, as described above. Bladders were voided 60 minutes after ABN administration and all urine produced 60-120 min after ABN administration was collected using custom tubes in which the animals rest upon 96-well plates that capture urine. Urine was pooled and frozen at −80° C. until analysis by LC-MS/MS.
Liquid chromatography/tandem mass spectrometry was performed by Syneos Health (Princeton, NJ) using a Sciex 6500 triple quadrupole instrument. Briefly, urine samples were treated with UV irradiation to photocleave the ANP linker and liberate the Glu-Fib reporter from residual peptide fragments. Samples were extracted by solid-phase extraction and analyzed by multiple reaction monitoring by LC-MS/MS to quantify concentration of each Glu-Fib mass variant. Analyte quantities were normalized to a spiked-in internal standard and concentrations were calculated from a standard curve using peak area ratio (PAR) to the internal standard. Mean normalization was performed on PAR values to account for mouse-to-mouse differences in ABN inhalation efficiency and urine concentration.
Principal component analysis (PCA) was performed on mean normalized PAR values in the R statistical environment (Team, R.C. R, R Foundation for Statistical Computing, Vienna, Austria, 2017) using the prcomp function. Binary classification was performed using the Caret package (Kuhn, M. caret: Classification and Regression Training. (2017)) in the R statistical environment). […]

[3] = test system: PA01 supernatant; assay: cleavage of FRET-paired substrates by bacterial supernatant; type: biochemical, Pseudomonas aeruginosa; details: added to PA01 supernatant
Method: The specificity of LAS and ELA for P. aeruginosa cleavage was tested by collecting supernatants from PA01 or Staphylococcus aureus cultures and incubating them with FRET-paired substrates LAS-Q and ELA-Q in 384 well plates. […] To investigate whether the LAS and ELA substrates are also susceptible to cleavage by host proteases, each was incubated with recombinant mouse proteases.
Supernatant from PA01 and S. aureus were collected and added to substrates in 384 well plates and dequenching of FAM was monitored at 37° C. (Tecan). Fluorescence change at 30 minutes was reported. For recombinant protease assays, enzyme was added to the substrates in enzyme-specific buffer (MMP7 & 9 buffer: 50 mM Tris, 150 mM NaCl, 5 mM CaCl2), […], pH 7.5; Thrombin: PBS; NE: 100 mM HEPES, 500 mM NaCl, 0.05% Tween 20) in a 384 well plate for time-lapse fluorimetry to measure dequenching at 37° C. (Tecan).

[4] = test system: P. aeruginosa strain PA01 lung infection; assay: histology and immunofluorescence of lung sections after antibiotic treatment; type: in vivo, mice
Method: To test whether inflammation remained after antibiotic therapy, histological and immunofluorescence analysis of lung sections were performed from infected and treated mice. […] The robust diagnostic capability of ELA to identify infection but poor ability to monitor treatment, paired with the robust ability for LAS to specifically monitor treatment highlights the importance of multiplexing and measuring both host and pathogen factors.
Individual responses to antimicrobial treatment can be highly variable, dependent upon the strain of pathogen and the presence of antibiotic resistance, and current clinical tests take 24-72 hours to identify antibiotic susceptibility (Caliendo et al., Clin Infect Dis, 57, S139, 2013). In addition, current clinical tests used to visualize lung infections (e.g., chest X-ray and computed tomography) are often unable to distinguish active infections from those that have been adequately treated until several weeks after antibiotic therapy is complete, because the airspace opacifications characteristic of pneumonia remain apparent on routine radiography screens (Bruns et al., J Gen Intern Med, 25, 203, 2010). Therefore, the ability of the infection-tracking ABNs to identify successful versus insufficient treatment on an acute time-scale shortly after therapeutic initiation was sought to be evaluated. Only 5 hours after establishing lung infections with PA01, antibiotic treatment was initiated with either ciprofloxacin (efficacious against P. aeruginosa) or doxycycline (ineffective against gram-negative bacteria including P. aeruginosa) (FIG. 13A). The following day, multiplexed LAS-E and ELA-E ABNs were administered and urine was collected. […] The persistent Pseudomonas immunostaining observed following ciprofloxacin treatment might be derived from residual Pseudomonas antigens remaining from lysed bacteria that had not yet been cleared by the immune system. Alternatively, the reduced LAS sensor reading in these treated mice could reflect a suppression of LasA secretion from bacteria as they are killed by the potent antibiotic.
All animal studies were approved by Massachusetts Institute of Technology's Committee on Animal Care. For infection studies, 5-7 week old female CD-1 mice were innoculated intratracheally with 1.25×10^6 CFU of P. aeruginosa strain PA01 in 50 μL of PBS. Bacteria were cultured overnight in LB broth, then subcultured and grown to log phase (OD600≈0.5). Bacteria were pelleted, washed with sterile PBS, and then resuspended to the requisite concentration for intratracheal administration. Mice were administered buprenorphine and meloxicam several hours after infection. For antibiotic treatment studies, mice were injected intraperitoneally with 40 mg/kg ciprofloxacin or 30 mg/kg doxycycline twice per day for up to 6 days.
Animals were perfused with PBS followed by 10% formalin solution. The lungs were resected and fixed in formalin before paraffin embedding and sectioning. […] Fluorescence images were acquired on a Perkin Elmer Pannoramic250. Quantification of neutrophil signal was completed by capturing 3-5 representative fields from each stained lung section and counting positive cells. Quantification of pseudomonas signal was completed by capturing 3-5 representative fields from each stained lung section and measuring total positive area after uniform thresholding of each single-channel fluorescence image (ImageJ).

[5] = 24 hours post-infection, after 19 hours of antibiotic therapy

Row | Compound | protease class(es) cleaving the substrate in vitro [1] | urinary reporter enrichment relative to healthy controls ([2]; KP10.5 wk urine) | urinary reporter enrichment relative to healthy controls ([2]; KP7.5 wk urine) | also measured
1 | PP11: ABN: reporter e(+3G)(+1V)ndnee(+2G)(+10F)Fs(+4A)r, ANP, substrate SGSKIIGGG, nanocarrier PEG8-40 kDa (chain 1 [dE][G+3][V+1][dN][dD][dN][dE][dE][G+2][F+10]F[dS][A+4][dR]; reading uncertain; also: ANP photolabile linker, attachment not given here, PEG8-40 kDa nanocarrier, attachment not given here, how reporter and substrate are joined not given here, printed as PP11: ABN: reporter e(+3G)(+1V)ndnee(+2G)(+10F)Fs(+4A)r, ANP, substrate SGSKIIGGG, nanocarrier PEG8-40 kDa) | serine protease-sensitive; also recorded: only by serine proteases | most significantly enriched |  | 
2 | PP02: ABN: reporter eG(+6V)ndneeGF(+1F)s(+1A)r, ANP, substrate PVGLIG, nanocarrier PEG8-40 kDa (chain 1 EGVNDNEEGFFSAR; not fully specified (some residues); printed as PP02: ABN: reporter eG(+6V)ndneeGF(+1F)s(+1A)r, ANP, substrate PVGLIG, nanocarrier PEG8-40 kDa) | metalloproteases or both metalloproteases and aspartic proteases | enriched | enriched | 
3 | PP09: ABN: reporter eGVndneeGF(+10F)s(+4A)r, ANP, substrate KPISLISSG, nanocarrier PEG8-40 kDa (chain 1 [dE]GV[dN][dD][dN][dE][dE]GF[+10F][dS][+4A][dR]; also: ANP photolabile linker, PEG8-40 kDa nanocarrier, linkage of reporter, ANP, substrate and carrier not given here) | metalloproteases or both metalloproteases and aspartic proteases | enriched | enriched | 
4 | [Cl-].[Cl-].[Zn+2] [ZnCl2, reference compound] |  |  |  | effect on cleavage signal of LAS-Q and ELA-Q [3]: suppressed the cleavage signal
5 | O=C(O)c1cn(C2CC2)c2cc(N3CCNCC3)c(F)cc2c1=O [ciprofloxacin] |  |  |  | decrease of Pseudomonas immunofluorescent signal compared to the doxycycline-treated group [4, 5]: ~60%; lung inflammation and neutrophils [4, 5]: marked lung inflammation and elevated neutrophils; Pseudomonas immunofluorescence signal in lungs of infected mice relative to uninfected or ciprofloxacin-treated mice ([4]; 4 day course of ciprofloxacin, 40 mg/kg intraperitoneally twice per day): 7-9 fold; Pseudomonas in lung sections after treatment ([4]; histology and immunofluorescent staining after ciprofloxacin course): no Pseudomonas; decrease in neutrophil count in lungs after antibiotic treatment ([4]; relative to infected mice): ~30%
